From patent US20140005163A1 (NOVARTIS AG, priority 2010, published 2014) come the findings set out here.

Converted amounts (≈) assume the structure as drawn.

A short description of one data set: Solubility at pH 6.8. It is filed as physicochemical. The following applies: pH 6.8, aqueous buffer, thermodynamic from solid; read-out: solubility. Put shortly:
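Following the procedure of Zhou et al. (2007), compound solubility was determined at pH 6.8.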

A further data set concerns the target T1, PI3K delta (Homo sapiens, UniProt O00329).
T1 construct: for the full-length p110-d subunit are generated and fused by overlapping PCR; p85(iSH2) fusion partner (see partner chain) (N); His tag (C); made in house; host or cells: baculovirus; Tn5 (Trichoplusia ni) or TiniPro insect cells
The experiment in a line: PI3K delta kinase assay (Kinase-Glo luminescence). It is filed as biochemical. In outline:
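Kinase-Glo luminescence read-out of ATP remaining after 60 min at RT. Enzyme: 10 nM BV1060 (p85 iSH2–p110δ fusion, His-tagged); substrate 10 μg/mL PI, ATP 1 μM final; Tris pH 7.5 buffer with MgCl2, NaCl, CHAPS, DTT. IC50 from 4-parameter logistic fit over 8 concentrations.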

Another data set has as its target T2, PI3K alpha (Homo sapiens, UniProt P42336).
T2 construct: p85(iSH2) fusion partner (see partner chain) (N); His tag (C); made in house; host or cells: baculovirus; Tn5 (Trichoplusia ni) or TiniPro insect cells
The experiment in a line: PI3K alpha kinase assay (Kinase-Glo luminescence). The format is biochemical. Put shortly:
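Read-out: Kinase-Glo luminescence of ATP left after 60 min at room temperature. Conditions: 10 nM PI3Kα (EMV B1075), 1 μM ATP, 10 μg/mL PI substrate, Tris pH 7.5 buffer with MgCl2, NaCl, CHAPS and DTT. IC50s fitted with a four-parameter logistic model.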

A further data set addresses T3, PI3K beta (Homo sapiens, UniProt P42338).
T3 construct: for the full-length p110-b subunit are generated and fused by overlapping PCR; p85(iSH2) fusion partner (see partner chain) (N); His tag (C); made in house; host or cells: baculovirus; Tn5 (Trichoplusia ni) or TiniPro insect cells
Nature of the data set: PI3K beta kinase assay (Kinase-Glo luminescence). It is filed as biochemical. Put shortly: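 IC50 is derived by four-parameter logistic curve fitting of Kinase-Glo luminescence, which measures ATP left after a 60 min room-temperature reaction. Conditions are 25 nM His-tagged p85(iSH2)-p110β, 1 μM ATP and 10 μg/mL bovine liver phosphatidylinositol.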
(In general: Kinase-Glo reads ATP consumption through a luciferase reaction.)

T1 sequence (O00329 with tags, fused parts or gaps limits assumed): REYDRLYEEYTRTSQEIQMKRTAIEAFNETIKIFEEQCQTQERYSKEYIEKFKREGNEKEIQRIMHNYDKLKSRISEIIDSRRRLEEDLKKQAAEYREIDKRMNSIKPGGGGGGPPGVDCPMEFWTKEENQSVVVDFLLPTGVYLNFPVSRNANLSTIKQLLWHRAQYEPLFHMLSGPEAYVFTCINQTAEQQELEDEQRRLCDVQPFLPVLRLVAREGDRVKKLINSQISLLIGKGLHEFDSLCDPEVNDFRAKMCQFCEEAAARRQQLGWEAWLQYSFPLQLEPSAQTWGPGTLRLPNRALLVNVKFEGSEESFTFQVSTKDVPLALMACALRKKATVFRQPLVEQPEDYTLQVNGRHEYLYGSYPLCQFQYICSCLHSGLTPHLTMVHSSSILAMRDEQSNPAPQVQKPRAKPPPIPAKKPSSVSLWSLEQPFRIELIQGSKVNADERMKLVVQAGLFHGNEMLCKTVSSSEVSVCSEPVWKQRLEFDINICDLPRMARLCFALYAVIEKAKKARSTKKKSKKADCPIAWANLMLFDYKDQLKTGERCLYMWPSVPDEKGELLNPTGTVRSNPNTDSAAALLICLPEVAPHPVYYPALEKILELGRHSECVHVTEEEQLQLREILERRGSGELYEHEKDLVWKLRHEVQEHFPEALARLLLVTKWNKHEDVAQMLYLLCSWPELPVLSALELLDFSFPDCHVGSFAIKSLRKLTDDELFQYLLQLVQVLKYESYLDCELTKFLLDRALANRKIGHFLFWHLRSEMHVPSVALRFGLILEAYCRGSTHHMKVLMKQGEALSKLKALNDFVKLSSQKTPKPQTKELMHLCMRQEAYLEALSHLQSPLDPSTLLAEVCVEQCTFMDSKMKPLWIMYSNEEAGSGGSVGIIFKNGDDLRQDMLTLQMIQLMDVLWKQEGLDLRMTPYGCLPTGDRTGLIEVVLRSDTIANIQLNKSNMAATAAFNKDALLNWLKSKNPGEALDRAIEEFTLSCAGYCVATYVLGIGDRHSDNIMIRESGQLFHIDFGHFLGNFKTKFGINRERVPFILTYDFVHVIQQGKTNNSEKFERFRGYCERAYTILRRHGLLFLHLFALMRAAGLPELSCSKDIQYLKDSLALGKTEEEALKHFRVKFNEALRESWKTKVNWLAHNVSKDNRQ
T2 sequence (P42336 with tags, fused parts or gaps limits assumed): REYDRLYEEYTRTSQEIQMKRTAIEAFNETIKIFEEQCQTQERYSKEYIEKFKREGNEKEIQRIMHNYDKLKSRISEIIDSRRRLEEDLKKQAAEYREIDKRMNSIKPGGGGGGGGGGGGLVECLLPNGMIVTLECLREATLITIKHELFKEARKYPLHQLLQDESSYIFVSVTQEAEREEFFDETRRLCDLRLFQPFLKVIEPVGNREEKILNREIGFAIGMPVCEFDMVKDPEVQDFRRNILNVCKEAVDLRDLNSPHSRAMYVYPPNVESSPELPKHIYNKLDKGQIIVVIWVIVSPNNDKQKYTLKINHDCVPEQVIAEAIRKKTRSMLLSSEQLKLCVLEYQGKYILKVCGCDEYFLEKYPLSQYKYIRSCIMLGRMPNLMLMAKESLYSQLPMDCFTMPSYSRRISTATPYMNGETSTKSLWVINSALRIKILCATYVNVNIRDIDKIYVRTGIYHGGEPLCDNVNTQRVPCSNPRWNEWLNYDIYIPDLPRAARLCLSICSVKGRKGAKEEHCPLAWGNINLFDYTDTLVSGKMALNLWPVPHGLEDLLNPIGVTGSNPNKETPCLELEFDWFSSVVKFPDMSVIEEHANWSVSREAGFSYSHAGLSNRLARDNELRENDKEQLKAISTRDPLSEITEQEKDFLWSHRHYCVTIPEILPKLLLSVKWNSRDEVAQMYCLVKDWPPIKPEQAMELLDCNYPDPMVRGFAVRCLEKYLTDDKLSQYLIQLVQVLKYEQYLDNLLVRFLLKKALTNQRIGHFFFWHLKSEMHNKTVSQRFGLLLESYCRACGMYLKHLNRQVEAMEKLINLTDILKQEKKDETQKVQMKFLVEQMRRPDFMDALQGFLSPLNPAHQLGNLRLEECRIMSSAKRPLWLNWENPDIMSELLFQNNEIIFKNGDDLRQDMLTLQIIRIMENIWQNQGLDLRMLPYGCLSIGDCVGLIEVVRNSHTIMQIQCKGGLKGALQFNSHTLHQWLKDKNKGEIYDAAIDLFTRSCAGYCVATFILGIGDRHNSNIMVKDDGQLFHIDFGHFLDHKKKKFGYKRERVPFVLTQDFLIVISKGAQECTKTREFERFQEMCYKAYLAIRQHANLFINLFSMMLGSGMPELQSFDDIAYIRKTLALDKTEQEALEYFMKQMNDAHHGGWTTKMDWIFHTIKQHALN
T3 sequence (P42338 with tags, fused parts or gaps limits assumed): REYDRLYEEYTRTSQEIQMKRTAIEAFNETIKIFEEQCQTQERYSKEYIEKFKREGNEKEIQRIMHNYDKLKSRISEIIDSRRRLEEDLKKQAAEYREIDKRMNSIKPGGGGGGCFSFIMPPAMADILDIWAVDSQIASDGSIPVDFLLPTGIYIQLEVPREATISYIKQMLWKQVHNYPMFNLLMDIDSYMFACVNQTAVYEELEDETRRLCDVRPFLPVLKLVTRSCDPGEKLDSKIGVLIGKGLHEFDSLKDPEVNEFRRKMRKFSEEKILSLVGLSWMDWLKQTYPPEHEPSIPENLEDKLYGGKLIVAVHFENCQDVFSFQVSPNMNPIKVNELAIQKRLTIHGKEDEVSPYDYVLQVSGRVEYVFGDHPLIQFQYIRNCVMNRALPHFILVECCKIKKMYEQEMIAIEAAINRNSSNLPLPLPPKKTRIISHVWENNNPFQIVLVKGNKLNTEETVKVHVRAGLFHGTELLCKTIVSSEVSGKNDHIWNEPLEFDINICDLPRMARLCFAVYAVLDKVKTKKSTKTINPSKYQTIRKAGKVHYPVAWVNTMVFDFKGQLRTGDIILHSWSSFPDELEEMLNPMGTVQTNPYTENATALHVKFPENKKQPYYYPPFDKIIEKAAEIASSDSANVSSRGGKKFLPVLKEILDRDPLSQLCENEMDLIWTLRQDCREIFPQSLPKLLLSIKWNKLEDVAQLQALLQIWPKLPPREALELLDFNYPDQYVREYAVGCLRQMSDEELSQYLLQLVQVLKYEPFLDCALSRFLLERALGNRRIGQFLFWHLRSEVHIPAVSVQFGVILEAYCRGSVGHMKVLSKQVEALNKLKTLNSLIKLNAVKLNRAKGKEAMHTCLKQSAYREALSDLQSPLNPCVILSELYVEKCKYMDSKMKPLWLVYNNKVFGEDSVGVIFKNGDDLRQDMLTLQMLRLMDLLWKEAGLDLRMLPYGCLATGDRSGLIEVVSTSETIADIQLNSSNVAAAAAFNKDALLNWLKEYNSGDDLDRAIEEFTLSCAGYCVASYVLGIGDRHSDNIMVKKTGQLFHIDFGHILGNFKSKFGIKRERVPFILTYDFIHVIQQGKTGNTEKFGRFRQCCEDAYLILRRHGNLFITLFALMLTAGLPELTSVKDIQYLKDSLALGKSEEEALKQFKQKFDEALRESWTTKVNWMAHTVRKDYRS

As a reminder, the solubility is the dissolved amount per volume that the medium holds. In general, IC50 refers to the midpoint of a concentration-inhibition curve. Take `CCN(CC)C(=O)Cn1cc(-n2c(=O)n(C)c3cnc4ccc(-c5cnc(N6CCCC6)nc5)cc4c32)c(C)n1` [Example 247.1, N,N-Diethyl-2-{3-methyl-4-[3-methyl-2-oxo-8-(2-pyrrolidin-1-yl-pyrimidin-5-yl)-2,3-dihydro-imidazo[4,5-c]quinolin-1-yl]-pyrazol-1-yl}-acetamide]: the solubility in “Solubility at pH 6.8” came out at 69 µg/mL (≈ 128 µM). The IC50 at PI3K delta was found to be 777 nM; at PI3K alpha, 93 nM.

Consider `Cc1nn(C)cc1-n1c(=O)n(C)c2cnc3ccc(-c4cnc(CO)c(Cl)c4)cc3c21` [Example 238, 8-(5-Chloro-6-hydroxymethyl-pyridin-3-yl)-1-(1,3-dimethyl-1H-pyrazol-4-yl)-3-methyl-1,3-dihydro-imidazo[4,5-c]quinolin-2-one], for which the solubility in the data set “Solubility at pH 6.8” was 8 µg/mL (≈ 18.4 µM). Moreover, the IC50 at PI3K beta was found to be 103 nM; on PI3K delta it was 473 nM; on PI3K alpha it was 29 nM.

For the molecule `COc1ccc(-c2ccc3ncc4c(c3c2)n(-c2ccnn2C)c(=O)n4C)cn1` [Example 2.2, 8-(6-Methoxy-pyridin-3-yl)-3-methyl-1-(2-methyl-2H-pyrazol-3-yl)-1,3-dihydro-imidazo[4,5-c]quinolin-2-one], the solubility in the data set “Solubility at pH 6.8” was 4 µg/mL (≈ 10.4 µM). For the same molecule, the half-inhibitory concentration (IC50) worked out at 278 nM on PI3K beta, 56 nM at PI3K delta and 62 nM on PI3K alpha.

Turning to `COc1cc(-c2ccc3ncc4c(c3c2)n(-c2cn(CCO)nc2C)c(=O)n4C)cnc1C` [Example 211.1, 1-[1-(2-Hydroxy-ethyl)-3-methyl-1H-pyrazol-4-yl]-8-(5-methoxy-6-methyl-pyridin-3-yl)-3-methyl-1,3-dihydro-imidazo[4,5-c]quinolin-2-one], in the data set “Solubility at pH 6.8”, the solubility turned out to be 3 µg/mL (≈ 6.75 µM). For the same molecule, the IC50 on PI3K beta was 18 nM; at PI3K delta it was 14 nM; on PI3K alpha, 6 nM.

On to `CNc1ncc(-c2ccc3ncc4c(c3c2)n(-c2cn(C(C)C)nc2C)c(=O)n4C)cc1CO` [Example 171, 8-(5-Hydroxymethyl-6-methylamino-pyridin-3-yl)-1-(1-isopropyl-3-methyl-1H-pyrazol-4-yl)-3-methyl-1,3-dihydro-imidazo[4,5-c]quinolin-2-one], for which the solubility in the data set “Solubility at pH 6.8” is 5 µg/mL (≈ 10.9 µM). Also, the IC50 on PI3K beta is 145 nM; at PI3K delta, 14 nM; at PI3K alpha, 32 nM.

With `CNc1cc(-c2ccc3ncc4c(c3c2)n(-c2cn(C)nc2C)c(=O)n4C)cnc1CO` [Example 158.1, 1-(1,3-Dimethyl-1H-pyrazol-4-yl)-8-(6-hydroxymethyl-5-methylamino-pyridin-3-yl)-3-methyl-1,3-dihydro-imidazo[4,5-c]quinolin-2-one], in the data set “Solubility at pH 6.8”, the solubility was over 429 µg/mL. Also, the IC50 on PI3K beta was found to be 10 nM; at PI3K delta it was 15 nM; on PI3K alpha, 9 nM.

As for `Cc1nn(C)cc1-n1c(=O)n(C)c2cnc3ccc(-c4cnc(Cl)c(N)c4)cc3c21` [Example 152.2, 8-(5-Amino-6-chloro-pyridin-3-yl)-1-(1,3-dimethyl-1H-pyrazol-4-yl)-3-methyl-1,3-dihydro-imidazo[4,5-c]quinolin-2-one], the solubility in “Solubility at pH 6.8” stood at 4 µg/mL (≈ 9.53 µM). For the same molecule, the results for the IC50 at PI3K beta, at PI3K delta and on PI3K alpha were 33 nM, 28 nM and 17 nM, respectively.

With `CCNc1cc(-c2ccc3ncc4c(c3c2)n(-c2cn(C)nc2C)c(=O)n4C)cnc1COC` [Example 156, 1-(1,3-Dimethyl-1H-pyrazol-4-yl)-8-(5-ethylamino-6-methoxymethyl-pyridin-3-yl)-3-methyl-1,3-dihydro-imidazo[4,5-c]quinolin-2-one], the solubility in “Solubility at pH 6.8” is over 458 µg/mL. For the same molecule, the IC50 stood at 29 nM at PI3K beta, 17 nM at PI3K delta and 16 nM on PI3K alpha.

As to `CCNc1cncc(-c2ccc3ncc4c(c3c2)n(-c2cn(C)nc2C)c(=O)n4C)c1` [Example 122, 1-(1,3-Dimethyl-1H-pyrazol-4-yl)-8-(5-ethylamino-pyridin-3-yl)-3-methyl-1,3-dihydro-imidazo[4,5-c]quinolin-2-one], the solubility in “Solubility at pH 6.8” worked out at 5 µg/mL (≈ 12.1 µM). In addition, the IC50 was 22 nM on PI3K beta, 14 nM on PI3K delta and 14 nM at PI3K alpha.

Turning to `Cc1ncc(-c2ccc3ncc4c(c3c2)n(-c2cn(C)nc2C)c(=O)n4C)cc1N` [Example 88.2, 8-(5-Amino-6-methyl-pyridin-3-yl)-1-(1,3-dimethyl-1H-pyrazol-4-yl)-3-methyl-1,3-dihydro-imidazo[4,5-c]quinolin-2-one], the solubility in “Solubility at pH 6.8” turned out to be 136 µg/mL (≈ 340 µM). For the same molecule, the IC50 amounted to 68 nM on PI3K beta, 8 nM on PI3K delta and 17 nM at PI3K alpha.

With `COc1cc(-c2ccc3ncc4c(c3c2)n(-c2cn(C(C)C)nc2C)c(=O)n4C)cnc1CO` [Example 194.1, 8-(6-Hydroxymethyl-5-methoxy-pyridin-3-yl)-1-(1-isopropyl-3-methyl-1H-pyrazol-4-yl)-3-methyl-1,3-dihydro-imidazo[4,5-c]quinolin-2-one], in “Solubility at pH 6.8”, the solubility stood at 129 µg/mL (≈ 281 µM). Moreover, the IC50 was 324 nM at PI3K beta, 15 nM at PI3K delta and 34 nM on PI3K alpha.

On to `Cc1nn(CC(=O)N(C)C)c(C)c1-n1c(=O)n(C)c2cnc3ccc(-c4ccc(-n5cccn5)cc4)cc3c21` [Example 51.4, 2-{3,5-Dimethyl-4-[3-methyl-2-oxo-8-(4-pyrazol-1-yl-phenyl)-2,3-dihydro-imidazo[4,5-c]quinolin-1-yl]pyrazol-1-yl}-N,N-dimethyl-acetamide], for which the solubility in “Solubility at pH 6.8” was found to be 11 µg/mL (≈ 21.1 µM). Besides, the IC50 on PI3K delta turned out to be 598 nM; on PI3K alpha it was 22 nM.

On to `COc1cc(-c2ccc3ncc4c(c3c2)n(-c2cn(C)nc2Cl)c(=O)n4C)cnc1CO` [Example 194.2, 1-(3-chloro-1-methyl-1H-pyrazol-4-yl)-8-(6-hydroxymethyl-5-methoxy-pyridin-3-yl)-3-methyl-1,3-dihydro-imidazo[4,5-c]quinolin-2-one], for which the solubility in “Solubility at pH 6.8” was found to be 94 µg/mL (≈ 208 µM). In addition, the figures for the IC50 on PI3K beta, on PI3K delta and on PI3K alpha were 6 nM, under 3 nM and 4 nM, respectively.

On to `CCNc1cc(-c2ccc3ncc4c(c3c2)n(-c2c(C)nn(CCOC)c2C)c(=O)n4C)cnc1C` [Example 87.4, 8-(5-Ethylamino-6-methyl-pyridin-3-yl)-1-[1-(2-methoxy-ethyl)-3,5-dimethyl-1H-pyrazol-4-yl]-3-methyl-1,3-dihydro-imidazo[4,5-c]quinolin-2-one], for which, in “Solubility at pH 6.8”, the solubility is over 486 µg/mL. Besides, the figures for the IC50 at PI3K beta, at PI3K delta and at PI3K alpha were 93 nM, 17 nM and 42 nM, respectively.

Take `CCOC(C)(C)c1cncc(-c2ccc3ncc4c(c3c2)n(-c2cn(C)nc2C)c(=O)n4C)c1` [Example 240, 1-(1,3-Dimethyl-1H-pyrazol-4-yl)-8-[5-(1-ethoxy-1-methyl-ethyl)-pyridin-3-yl]-3-methyl-1,3-dihydro-imidazo[4,5-c]quinolin-2-one]: the solubility in the data set “Solubility at pH 6.8” was found to be 4 µg/mL (≈ 8.76 µM). The figures for the IC50 at PI3K beta, at PI3K delta and at PI3K alpha were 91 nM, under 3 nM and 6 nM, respectively.

Regarding `C=CCn1c(=O)n(-c2cn(C)nc2C)c2c3cc(-c4cncc(N)c4)ccc3ncc21` [Example 246, 3-Allyl-8-(5-amino-pyridin-3-yl)-1-(1,3-dimethyl-1H-pyrazol-4-yl)-1,3-dihydro-imidazo[4,5-c]quinolin-2-one], the solubility in the data set “Solubility at pH 6.8” amounted to 75 µg/mL (≈ 182 µM). The IC50 on PI3K beta amounted to 82 nM; at PI3K delta, 10 nM; on PI3K alpha it was 28 nM.

Turning to `COc1ncc(-c2ccc3ncc4c(c3c2)n(-c2cn(C(C)C)nc2C)c(=O)n4C)c(OC)n1` [Example 234.3, 8-(2,4-Dimethoxy-pyrimidin-5-yl)-1-(1-isopropyl-3-methyl-1H-pyrazol-4-yl)-3-methyl-1,3-dihydro-imidazo[4,5-c]quinolin-2-one], in “Solubility at pH 6.8”, the solubility amounted to 13 µg/mL (≈ 28.3 µM). Also, the values for the IC50 on PI3K beta, at PI3K delta and on PI3K alpha were 150 nM, under 3 nM and 15 nM, respectively.

As for `Cc1nn(C)cc1-n1c(=O)n(C)c2cnc3ccc(-c4cncc(OC(CF)CF)c4)cc3c21` [Example 182, 1-(1,3-Dimethyl-1H-pyrazol-4-yl)-8-[5-(2-fluoro-1-fluoromethyl-ethoxy)-pyridin-3-yl]-3-methyl-1,3-dihydro-imidazo[4,5-c]quinolin-2-one], the solubility in the data set “Solubility at pH 6.8” stood at 56 µg/mL (≈ 121 µM). The IC50 on PI3K beta came out at 11 nM; on PI3K delta, 8 nM; at PI3K alpha, 9 nM.

On to `CCOc1ccc(-c2ccc3ncc4c(c3c2)n(-c2cn(CCOC)nc2C)c(=O)n4C)cn1` [Example 131, 8-(6-Ethoxy-pyridin-3-yl)-1-[1-(2-methoxy-ethyl)-3-methyl-1H-pyrazol-4-yl]-3-methyl-1,3-dihydro-imidazo[4,5-c]quinolin-2-one], for which the solubility in “Solubility at pH 6.8” came to 4 µg/mL (≈ 8.72 µM). In addition, the IC50 on PI3K delta was 271 nM; at PI3K alpha, 161 nM.
